{"source": "patent US6288080A", "about": "“Magnesium quinolone antibiotics” (priority 1998, dated 2001)", "key": {"[1]": {"assay": "Aqueous solubility of the quinolone and its crystal forms", "assay_type": "physicochemical", "details": "for solubility of crystal form: depending upon the crystal form", "excerpt": "The compounds disclosed in U.S. Pat. No. 5,563,155, ('155) are incorporated by reference here to fully disclose and enable this invention. The following compounds of the '155 patent are pointed out and particularly incorporated here. […] More particularly disclosed by incorporation by reference are those compounds of '155, in claim 1, where R2 is H and where R or R' is H. The quinolone where R2 is H and where R or R' is H can be combined with Mg2+ ions to produce a soluble complex having reduced injection site irritation. More preferred are the compounds of '155, in claim 1, where R2 is H and where R or R' is H, and where R3 is H and X is C--O--CH3. The esters of these compounds are also disclosed herein, the carboxy esters of 1-8 carbon groups are disclosed here, including all isomeric combinations (CH3, C2 H5, C3 H7, C4 H9, C5 H11, C6 H13, C7 H15, C8 H17 -- both straight and branched chains) and especially preferred are the carboxy esters of 1-4 carbon groups such as in U.S. Pat. No. 5,563,155, claim 1, where R2 is an alkyl of 1-4 carbon atoms or a cation. Even more preferred are the compounds of claim 2, most particularly the compound of claim 8 or 3R,1S-1-cyclopropyl-7-(3-(1-(methylamino)ethyl)-1-pyrrolidinyl)-6-fluoro-1,4-dihydro-8-methoxy-4-oxo-3-quinolinecarboxylic acid. […] Also, particular attention is directed to the descriptions in the specification of the '155 patent that correspond or are relevant to those claims and compounds described here.\nThe quinolones mentioned above can exist in different forms, the different forms having different solubilities. […] Even though it is the less soluble crystal form, Form III is very suitable as the quinolone that may be combined with Mg2+ in this invention. See, WO96/16055, incorporated by reference.\nThe compounds that may be made into solutions of this type are those compounds disclosed in Formula 1 and in U.S. Pat. No. 5,563,155, incorporated herein by reference and particularly 3R,1S-1-cyclopropyl-7-(3-(1-(methylamino)ethyl)-1-pyrrolidinyl)-6-fluoro-1,4-dihydro-8-methoxy-4-oxo-3-quinolinecarboxylic acid. […]"}, "[2]": {"assay": "Serum depletion profile of 14C-quinolone with and without magnesium", "assay_type": "in vivo, Holstein calves", "details": "single subcutaneous, approximately 10 mg/kg", "procedure": "(§1) Experiment 7. The determination of preliminary residue depletion profile in calves following subcutaneous administration of 14C-quinolone with and without magnesium.\n(§2) Formulations: Radiolabeled quinolone was combined with unlabeled quinolone to yield solutions containing quinolone at 50 mg/mL with a specific activity of 2.25 uCi/mg. Solution 1: 4.92 g of unlabeled quinolone and 11.26 mCi 14C-quinolone were dissolved in 0.16 M HCl, the solution was titrated to pH 4-5 with 1 M NaOH and diluted with deionized water to a final volume of 100 mL. Solution 2: 4.92 g of unlabeled quinolone and 11.26 mCi 14C-quinolone were dissolved in 0.24 M MgCl2 --6H2 O and diluted to 100 mL with deionized water.\n(§3) Treatment Groups: Ten (male and female) Holstein calves approximately 50-85 kg were used. Each animal was injected with a single subcutaneous injection (approximately 0.2 mL dose solution/kg body weight). The dose level was approximately 10 mg/kg (22.5 uCi/kg) body weight. Whole blood samples (approximately 50 mL) were collected from each animal at 0.5, 1, 1.5, 2, 2.5, 3, 6, 12, 24, and 48 h after dosing or until euthanasia. Following euthanasia, fat, muscle, lung, kidney, liver and injection site tissue samples (approximately 500 g) were collected. Blood and tissue samples were combusted and drug residue determined by liquid scintillation counting."}, "[3]": {"assay": "Total 14C-quinolone tissue residue depletion", "assay_type": "in vivo, Holstein calves", "details": "for Total 14C-quinolone residues at injection site / Total 14C-quinolone residues in fat / Total 14C-quinolone residues in kidneys / Total 14C-quinolone residues in liver / Total 14C-quinolone residues in lungs / Total 14C-quinolone residues in muscle: 10 mg/kg", "procedure": "as §1, §2, §3"}, "[4]": {"assay": "Injection site reaction after subcutaneous injection in animals (general statement)", "assay_type": "in vivo", "details": "without Mg2+", "excerpt": "Unfortunately these compounds also produce a severe adverse reaction at the injection site when injected subcutaneously in animals."}}, "data": [{"smiles": "CN[C@@H](C)[C@@H]1CCN(c2c(F)cc3c(=O)c(C(=O)O)cn(C4CC4)c3c2OC)C1", "note": "[Form 1, 3R,1S-1-cyclopropyl-7-(3-(1-(methylamino)ethyl)-1-pyrrolidinyl)-6-fluoro-1,4-dihydro-8-methoxy-4-oxo-3-quinolinecarboxylic acid]", "values": [{"measurement": "solubility of crystal form", "setting": "[1]", "value": "about 10.8 mg/ml"}]}, {"smiles": "CN[C@@H](C)[C@@H]1CCN(c2c(F)cc3c(=O)c(C(=O)O)cn(C4CC4)c3c2OC)C1", "note": "[Form 3, 3R,1S-1-cyclopropyl-7-(3-(1-(methylamino)ethyl)-1-pyrrolidinyl)-6-fluoro-1,4-dihydro-8-methoxy-4-oxo-3-quinolinecarboxylic acid]", "values": [{"measurement": "solubility of crystal form", "setting": "[1]", "value": "about 2.2 mg/ml"}]}, {"smiles": "CN[C@@H](C)[C@@H]1CCN(c2c(F)cc3c(=O)c(C(=O)O)cn(C4CC4)c3c2OC)C1", "note": "[QFB, [S-(R*,S*)]-1-Cyclopropyl-6-fluoro-1,4-dihydro-8-methoxy-7-[3-[1-(methylamino)ethyl]-1-pyrrolidinyl]-4-oxo-3-quinolinecarboxylic acid]", "values": [{"measurement": "serum concentration at 1 hour", "setting": "[2]; 1 hour", "value": 30400, "unit": "ng/mL"}, {"measurement": "serum concentration after 48 hours", "setting": "[2]; 48 hours", "value": 1000, "unit": "ng/mL"}, {"measurement": "estimated intrinsic solubility", "setting": "[1]; 25° C.", "value": "about 2.2 mg/ml"}, {"measurement": "Total 14C-quinolone residues at injection site", "setting": "[3]; 3 hr", "value": "10,482 μg/g"}, {"measurement": "Total 14C-quinolone residues in fat", "setting": "[3]; 3 hr", "value": 45.4, "unit": "µg/g"}, {"measurement": "Total 14C-quinolone residues in kidneys", "setting": "[3]; 3 hr", "value": 353.2, "unit": "µg/g"}, {"measurement": "Total 14C-quinolone residues in liver", "setting": "[3]; 3 hr", "value": 215.5, "unit": "µg/g"}, {"measurement": "Total 14C-quinolone residues in lungs", "setting": "[3]; 3 hr", "value": 146.8, "unit": "µg/g"}, {"measurement": "Total 14C-quinolone residues in muscle", "setting": "[3]; 3 hr", "value": 50.1, "unit": "µg/g"}, {"measurement": "Total 14C-quinolone residues at injection site", "setting": "[3]; 6 hr", "value": "12,382 μg/g"}, {"measurement": "Total 14C-quinolone residues in fat", "setting": "[3]; 6 hr", "value": 16.8, "unit": "µg/g"}, {"measurement": "Total 14C-quinolone residues in kidneys", "setting": "[3]; 6 hr", "value": 234.1, "unit": "µg/g"}, {"measurement": "Total 14C-quinolone residues in liver", "setting": "[3]; 6 hr", "value": 147.2, "unit": "µg/g"}, {"measurement": "Total 14C-quinolone residues in lungs", "setting": "[3]; 6 hr", "value": 96.6, "unit": "µg/g"}, {"measurement": "Total 14C-quinolone residues in muscle", "setting": "[3]; 6 hr", "value": 38.4, "unit": "µg/g"}, {"measurement": "Total 14C-quinolone residues at injection site", "setting": "[3]; 12 hr", "value": "1,737 μg/g"}, {"measurement": "Total 14C-quinolone residues in fat", "setting": "[3]; 12 hr", "value": 7.8, "unit": "µg/g"}, {"measurement": "Total 14C-quinolone residues in kidneys", "setting": "[3]; 12 hr", "value": 121.3, "unit": "µg/g"}, {"measurement": "Total 14C-quinolone residues in liver", "setting": "[3]; 12 hr", "value": 110.9, "unit": "µg/g"}, {"measurement": "Total 14C-quinolone residues in lungs", "setting": "[3]; 12 hr", "value": 53.1, "unit": "µg/g"}, {"measurement": "Total 14C-quinolone residues in muscle", "setting": "[3]; 12 hr", "value": 24.3, "unit": "µg/g"}, {"measurement": "Total 14C-quinolone residues at injection site", "setting": "[3]; 24 hr", "value": 932.5, "unit": "µg/g"}, {"measurement": "Total 14C-quinolone residues in fat", "setting": "[3]; 24 hr", "value": 13.9, "unit": "µg/g"}, {"measurement": "Total 14C-quinolone residues in kidneys", "setting": "[3]; 24 hr", "value": 90.3, "unit": "µg/g"}, {"measurement": "Total 14C-quinolone residues in liver", "setting": "[3]; 24 hr", "value": 59.5, "unit": "µg/g"}, {"measurement": "Total 14C-quinolone residues in lungs", "setting": "[3]; 24 hr", "value": 27.6, "unit": "µg/g"}, {"measurement": "Total 14C-quinolone residues in muscle", "setting": "[3]; 24 hr", "value": 9.4, "unit": "µg/g"}, {"measurement": "Total 14C-quinolone residues at injection site", "setting": "[3]; 48 hr", "value": 225.7, "unit": "µg/g"}, {"measurement": "Total 14C-quinolone residues in fat", "setting": "[3]; 48 hr", "value": 1.7, "unit": "µg/g"}, {"measurement": "Total 14C-quinolone residues in kidneys", "setting": "[3]; 48 hr", "value": 15.0, "unit": "µg/g"}, {"measurement": "Total 14C-quinolone residues in liver", "setting": "[3]; 48 hr", "value": 13.4, "unit": "µg/g"}, {"measurement": "Total 14C-quinolone residues in lungs", "setting": "[3]; 48 hr", "value": 4.8, "unit": "µg/g"}, {"measurement": "Total 14C-quinolone residues in muscle", "setting": "[3]; 48 hr", "value": 1.4, "unit": "µg/g"}, {"measurement": "injection site concentration of QFB", "setting": "[3]; single subcutaneous, approximately 10 mg/kg", "value": "10,480 ug/g"}, {"measurement": "adverse reaction at injection site", "setting": "[4]", "value": "dramatic swelling, discoloration, internal and external lesions and even necrosis"}]}]}
